Measured values taken from ChEMBL document CHEMBL4507262, “Data for DCP probe A-1596586” (2021).

Tests used:
[1] = target: Tyrosine-protein kinase JAK1 (Homo sapiens) (UniProt P23458); conditions: Compound concentration 1000.0 nM
[2] = target: Mitogen-activated protein kinase 10 (Homo sapiens) (UniProt P53779); conditions: Compound concentration 1000.0 nM
[3] = target: Beta-1 adrenergic receptor (Homo sapiens) (UniProt P08588); assay: Beta1 (h) Eurofins-Cerep binding assay; parameters: ligand concentration 0.3 nM; conditions: filed as agonist, Compound concentration 10.0 uM
[4] = target: Focal adhesion kinase 1 (Homo sapiens) (UniProt Q05397); conditions: Compound concentration 1000.0 nM
[5] = target: MAP kinase-interacting serine/threonine-protein kinase 2 (Homo sapiens) (UniProt Q9HBH9); conditions: Compound concentration 1000.0 nM
[6] = target: Mitogen-activated protein kinase 1 (Homo sapiens) (UniProt P28482); conditions: Compound concentration 1000.0 nM
[7] = target: Receptor-interacting serine/threonine-protein kinase 4 (Homo sapiens) (UniProt P57078); conditions: Compound concentration 1000.0 nM
[8] = target: 5-hydroxytryptamine receptor 1B (Homo sapiens) (UniProt P28222); assay: 5-HT1B(h) Eurofins-Cerep binding assay; parameters: ligand concentration 1 nM; conditions: filed as antagonist, Compound concentration 10.0 uM
[9] = system: Epidermal growth factor receptor (Homo sapiens), P00533 [G719S]; conditions: Compound concentration 1000.0 nM
[10] = target: Mitogen-activated protein kinase kinase kinase 12 (Homo sapiens) (UniProt Q12852); conditions: Compound concentration 1000.0 nM
[11] = system: Receptor-type tyrosine-protein kinase FLT3 (Homo sapiens), P36888 [UNDEFINED MUTATION]; conditions: Compound concentration 1000.0 nM
[12] = target: Proto-oncogene tyrosine-protein kinase ROS (Homo sapiens) (UniProt P08922); conditions: Compound concentration 1000.0 nM
[13] = target: Estrogen receptor (Homo sapiens) (UniProt P03372); assay: Estrogen ER alpha (h) Eurofins-Cerep binding assay; parameters: ligand concentration 0.5 nM; conditions: filed as agonist, Compound concentration 10.0 uM
[14] = target: Serine/threonine-protein kinase PAK 3 (Homo sapiens) (UniProt O75914); conditions: Compound concentration 1000.0 nM
[15] = target: Serine/threonine-protein kinase ULK2 (Homo sapiens) (UniProt Q8IYT8); conditions: Compound concentration 1000.0 nM
[16] = target: Activin receptor type-1 (Homo sapiens) (UniProt Q04771); conditions: Compound concentration 1000.0 nM
[17] = target: Prostaglandin G/H synthase 1 (Homo sapiens) (UniProt P23219); assay: COX1(h) Eurofins-Cerep enzyme and uptake assay; conditions: Compound concentration 10.0 uM
[18] = target: Ephrin type-B receptor 1 (Homo sapiens) (UniProt P54762); conditions: Compound concentration 1000.0 nM
[19] = target: Calcitonin-gene-related peptide receptor, CALCRL/RAMP1 (Homo sapiens) (UniProt O60894+Q16602); assay: CGRP (h) Eurofins-Cerep binding assay; format: protein-complex assay; parameters: ligand concentration 0.03 nM; conditions: filed as agonist, Compound concentration 10.0 uM
[20] = target: Casein kinase I isoform gamma-3 (Homo sapiens) (UniProt Q9Y6M4); conditions: Compound concentration 1000.0 nM
[21] = system: Hepatocyte growth factor receptor (Homo sapiens), P08581 [M1250T]; conditions: Compound concentration 1000.0 nM
[22] = target: Serine/threonine-protein kinase WNK2 (Homo sapiens) (UniProt Q9Y3S1); conditions: Compound concentration 1000.0 nM
[23] = target: Phosphatidylinositol 4-phosphate 5-kinase type-1 alpha (Homo sapiens) (UniProt Q99755); conditions: Compound concentration 1000.0 nM
[24] = system: Leucine-rich repeat serine/threonine-protein kinase 2 (Homo sapiens), Q5S007 [G2019S]; conditions: Compound concentration 1000.0 nM
[25] = system: Phosphatidylinositol 4,5-bisphosphate 3-kinase catalytic subunit alpha isoform (Homo sapiens), P42336 [E545K]; conditions: Compound concentration 1000.0 nM
[26] = target: RAC-beta serine/threonine-protein kinase (Homo sapiens) (UniProt P31751); conditions: Compound concentration 1000.0 nM
[27] = target: Alpha-1D adrenergic receptor (Homo sapiens) (UniProt P25100); conditions: Compound concentration 10.0 uM
[28] = target: L-type Ca2+ channel (dihydropyridine site) (Rattus norvegicus, UniProt P22002+P27732+Q02485); assay: Ca2+ channel (L, dihydropyridine site) Eurofins-Cerep binding assay; format: protein assay; parameters: incubation time 90 min, incubation temperature RT, ligand concentration 0.1 nM; conditions: rat cerebral cortex, probe [3H]nitrendipine (0.1 nM), compound concentration 10 uM, read-out: % Inhibition of Control Specific Binding (Mean n=2)
[29] = target: Receptor-type tyrosine-protein kinase FLT3 (Homo sapiens) (UniProt P36888); conditions: Compound concentration 1000.0 nM
[30] = target: Serine/threonine-protein kinase 25 (Homo sapiens) (UniProt O00506); conditions: Compound concentration 1000.0 nM
[31] = target: Myosin-IIIb (Homo sapiens) (UniProt Q8WXR4); conditions: Compound concentration 1000.0 nM
[32] = target: Ribosomal protein S6 kinase alpha-6 (Homo sapiens) (UniProt Q9UK32); conditions: Compound concentration 1000.0 nM
[33] = target: Phosphorylase b kinase regulatory subunit alpha, liver isoform (Homo sapiens) (UniProt P46019); conditions: Compound concentration 1000.0 nM
[34] = target: G protein-coupled receptor kinase 4 (Homo sapiens) (UniProt P32298); conditions: Compound concentration 1000.0 nM
[35] = system: Mast/stem cell growth factor receptor Kit (Homo sapiens), P10721 [V559D,V654A]; conditions: Compound concentration 1000.0 nM
[36] = target: Ephrin type-A receptor 3 (Homo sapiens) (UniProt P29320); conditions: Compound concentration 1000.0 nM
[37] = target: Ribosomal protein S6 kinase alpha-1 (Homo sapiens) (UniProt Q15418); conditions: Compound concentration 1000.0 nM
[38] = target: Serine/threonine-protein kinase pim-1 (Homo sapiens) (UniProt P11309); conditions: Compound concentration 1000.0 nM
[39] = target: Protein kinase C eta type (Homo sapiens) (UniProt P24723); conditions: Compound concentration 1000.0 nM
[40] = target: Leucine-rich repeat serine/threonine-protein kinase 2 (Homo sapiens) (UniProt Q5S007); conditions: Compound concentration 1000.0 nM
[41] = system: Receptor-type tyrosine-protein kinase FLT3 (Homo sapiens), P36888 [R834Q]; conditions: Compound concentration 1000.0 nM
[42] = target: Myosin light chain kinase family member 4 (Homo sapiens) (UniProt Q86YV6); conditions: Compound concentration 1000.0 nM
[43] = target: Myosin light chain kinase, smooth muscle (Homo sapiens) (UniProt Q15746); conditions: Compound concentration 1000.0 nM

Chain of Myosin light chain kinase family member 4 (Homo sapiens) (Q86YV6 whole entry): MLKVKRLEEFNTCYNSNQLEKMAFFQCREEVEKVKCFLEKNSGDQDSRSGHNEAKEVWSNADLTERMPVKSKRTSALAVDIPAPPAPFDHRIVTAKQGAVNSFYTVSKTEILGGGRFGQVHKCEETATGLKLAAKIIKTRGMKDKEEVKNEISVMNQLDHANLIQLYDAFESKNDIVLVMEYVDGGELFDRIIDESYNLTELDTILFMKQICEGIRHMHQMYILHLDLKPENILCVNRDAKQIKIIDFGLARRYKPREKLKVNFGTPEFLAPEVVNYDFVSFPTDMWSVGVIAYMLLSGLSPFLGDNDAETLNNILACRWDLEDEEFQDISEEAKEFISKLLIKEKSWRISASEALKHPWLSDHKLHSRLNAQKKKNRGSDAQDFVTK
Chain of Serine/threonine-protein kinase 25 (Homo sapiens) (O00506 whole entry, looked up): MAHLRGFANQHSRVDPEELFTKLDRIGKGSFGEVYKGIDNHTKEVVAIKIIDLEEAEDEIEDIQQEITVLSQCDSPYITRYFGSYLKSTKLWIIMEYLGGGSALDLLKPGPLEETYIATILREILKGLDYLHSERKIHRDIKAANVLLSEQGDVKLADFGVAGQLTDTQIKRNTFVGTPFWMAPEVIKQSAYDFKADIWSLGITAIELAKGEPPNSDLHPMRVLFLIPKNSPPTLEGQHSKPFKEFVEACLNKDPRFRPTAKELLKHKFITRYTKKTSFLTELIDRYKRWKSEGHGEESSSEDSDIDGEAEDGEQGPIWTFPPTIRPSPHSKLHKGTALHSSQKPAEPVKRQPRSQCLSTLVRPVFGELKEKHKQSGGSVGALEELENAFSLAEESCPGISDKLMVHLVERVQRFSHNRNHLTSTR
Chain of Protein kinase C eta type (Homo sapiens) (P24723 whole entry): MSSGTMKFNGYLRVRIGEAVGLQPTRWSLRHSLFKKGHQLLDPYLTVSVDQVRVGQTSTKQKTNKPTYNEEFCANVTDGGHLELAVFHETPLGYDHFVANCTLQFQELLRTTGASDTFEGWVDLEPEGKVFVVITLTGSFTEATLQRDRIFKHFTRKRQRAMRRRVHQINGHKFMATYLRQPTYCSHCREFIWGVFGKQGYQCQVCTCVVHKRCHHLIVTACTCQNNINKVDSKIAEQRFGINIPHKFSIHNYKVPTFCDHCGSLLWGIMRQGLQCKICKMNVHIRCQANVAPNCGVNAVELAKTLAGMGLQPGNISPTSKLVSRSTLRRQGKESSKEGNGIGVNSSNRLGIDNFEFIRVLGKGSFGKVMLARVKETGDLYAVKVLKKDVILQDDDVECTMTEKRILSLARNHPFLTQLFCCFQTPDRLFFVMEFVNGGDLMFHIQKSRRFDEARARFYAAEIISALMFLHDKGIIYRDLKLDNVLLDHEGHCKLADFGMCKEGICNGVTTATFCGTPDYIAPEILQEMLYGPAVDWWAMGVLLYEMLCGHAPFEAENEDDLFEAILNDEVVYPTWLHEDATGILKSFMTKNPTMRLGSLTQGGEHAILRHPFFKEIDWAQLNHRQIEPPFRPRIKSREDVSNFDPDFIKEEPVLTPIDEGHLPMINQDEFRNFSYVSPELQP
Chain of Ephrin type-B receptor 1 (Homo sapiens) (P54762 whole entry): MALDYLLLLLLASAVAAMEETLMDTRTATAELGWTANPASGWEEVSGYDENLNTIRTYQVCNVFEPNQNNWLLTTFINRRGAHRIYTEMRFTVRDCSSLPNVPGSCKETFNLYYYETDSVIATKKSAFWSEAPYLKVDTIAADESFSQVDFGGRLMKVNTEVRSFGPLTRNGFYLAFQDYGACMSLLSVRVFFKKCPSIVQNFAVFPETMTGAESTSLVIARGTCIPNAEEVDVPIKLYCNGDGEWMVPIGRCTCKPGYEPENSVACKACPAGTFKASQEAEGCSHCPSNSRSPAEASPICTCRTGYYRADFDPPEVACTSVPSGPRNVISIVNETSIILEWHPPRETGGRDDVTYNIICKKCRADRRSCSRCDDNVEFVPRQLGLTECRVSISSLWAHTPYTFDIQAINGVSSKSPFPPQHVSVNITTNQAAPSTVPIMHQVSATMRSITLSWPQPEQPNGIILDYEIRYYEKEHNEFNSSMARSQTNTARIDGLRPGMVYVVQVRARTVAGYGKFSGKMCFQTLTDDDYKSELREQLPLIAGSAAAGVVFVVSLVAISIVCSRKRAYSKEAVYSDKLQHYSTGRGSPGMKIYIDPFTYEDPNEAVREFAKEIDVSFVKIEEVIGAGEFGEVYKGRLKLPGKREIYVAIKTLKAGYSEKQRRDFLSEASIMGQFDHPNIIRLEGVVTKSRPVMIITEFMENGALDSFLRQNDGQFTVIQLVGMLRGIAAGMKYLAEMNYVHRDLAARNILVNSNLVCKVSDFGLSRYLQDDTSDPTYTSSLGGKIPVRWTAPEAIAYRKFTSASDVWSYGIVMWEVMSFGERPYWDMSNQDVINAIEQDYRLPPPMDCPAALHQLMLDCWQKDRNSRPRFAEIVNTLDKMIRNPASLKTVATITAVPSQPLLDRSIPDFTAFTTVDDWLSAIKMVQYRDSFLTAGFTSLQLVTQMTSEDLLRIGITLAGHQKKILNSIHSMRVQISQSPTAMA
Chain of Ribosomal protein S6 kinase alpha-6 (Homo sapiens) (Q9UK32 whole entry, canonical isoform): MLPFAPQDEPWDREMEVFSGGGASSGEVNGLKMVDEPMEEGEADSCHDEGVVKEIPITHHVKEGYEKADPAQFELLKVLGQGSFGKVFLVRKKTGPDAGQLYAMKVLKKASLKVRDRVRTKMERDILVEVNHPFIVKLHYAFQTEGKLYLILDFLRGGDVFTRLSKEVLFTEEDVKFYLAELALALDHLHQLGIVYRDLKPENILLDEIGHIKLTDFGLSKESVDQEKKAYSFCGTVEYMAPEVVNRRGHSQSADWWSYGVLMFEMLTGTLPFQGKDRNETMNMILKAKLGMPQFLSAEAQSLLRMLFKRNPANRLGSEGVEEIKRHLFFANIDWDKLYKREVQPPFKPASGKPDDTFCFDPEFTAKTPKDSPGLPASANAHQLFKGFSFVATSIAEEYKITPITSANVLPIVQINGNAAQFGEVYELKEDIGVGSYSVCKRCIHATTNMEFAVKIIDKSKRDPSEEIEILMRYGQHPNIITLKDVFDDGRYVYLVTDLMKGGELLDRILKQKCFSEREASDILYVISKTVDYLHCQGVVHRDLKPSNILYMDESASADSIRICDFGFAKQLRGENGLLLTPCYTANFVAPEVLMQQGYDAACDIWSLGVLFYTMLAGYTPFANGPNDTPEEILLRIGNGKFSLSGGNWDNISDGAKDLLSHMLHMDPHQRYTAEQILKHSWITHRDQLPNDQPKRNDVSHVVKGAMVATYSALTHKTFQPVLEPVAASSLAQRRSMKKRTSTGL
Chain of 5-hydroxytryptamine receptor 1B (Homo sapiens) (P28222 whole entry): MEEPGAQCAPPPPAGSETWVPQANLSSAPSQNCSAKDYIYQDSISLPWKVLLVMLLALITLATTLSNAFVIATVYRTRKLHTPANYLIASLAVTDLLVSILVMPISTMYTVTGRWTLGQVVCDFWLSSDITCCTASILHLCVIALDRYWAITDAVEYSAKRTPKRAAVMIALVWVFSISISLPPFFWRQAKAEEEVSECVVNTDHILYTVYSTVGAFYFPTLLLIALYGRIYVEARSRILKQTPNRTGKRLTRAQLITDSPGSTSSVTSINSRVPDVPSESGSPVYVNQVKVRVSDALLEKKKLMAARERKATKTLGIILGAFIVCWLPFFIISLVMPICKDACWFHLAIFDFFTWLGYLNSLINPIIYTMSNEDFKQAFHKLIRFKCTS
Chain of Phosphatidylinositol 4-phosphate 5-kinase type-1 alpha (Homo sapiens) (Q99755 whole entry): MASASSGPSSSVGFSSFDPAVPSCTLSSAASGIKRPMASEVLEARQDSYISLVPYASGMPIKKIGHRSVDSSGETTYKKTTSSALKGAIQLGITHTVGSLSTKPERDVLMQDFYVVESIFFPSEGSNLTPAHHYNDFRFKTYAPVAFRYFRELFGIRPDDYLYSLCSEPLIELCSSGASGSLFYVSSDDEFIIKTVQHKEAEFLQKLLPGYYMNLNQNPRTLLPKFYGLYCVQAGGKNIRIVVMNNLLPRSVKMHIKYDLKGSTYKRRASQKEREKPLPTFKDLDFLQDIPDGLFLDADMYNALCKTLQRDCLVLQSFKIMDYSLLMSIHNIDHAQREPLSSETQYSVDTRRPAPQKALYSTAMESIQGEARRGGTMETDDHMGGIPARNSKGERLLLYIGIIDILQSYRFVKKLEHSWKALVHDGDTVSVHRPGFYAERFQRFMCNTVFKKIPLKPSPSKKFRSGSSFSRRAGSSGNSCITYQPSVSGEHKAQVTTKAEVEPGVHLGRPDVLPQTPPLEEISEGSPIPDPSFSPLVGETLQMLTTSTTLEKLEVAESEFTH
Chain of Receptor-interacting serine/threonine-protein kinase 4 (Homo sapiens) (P57078 whole entry): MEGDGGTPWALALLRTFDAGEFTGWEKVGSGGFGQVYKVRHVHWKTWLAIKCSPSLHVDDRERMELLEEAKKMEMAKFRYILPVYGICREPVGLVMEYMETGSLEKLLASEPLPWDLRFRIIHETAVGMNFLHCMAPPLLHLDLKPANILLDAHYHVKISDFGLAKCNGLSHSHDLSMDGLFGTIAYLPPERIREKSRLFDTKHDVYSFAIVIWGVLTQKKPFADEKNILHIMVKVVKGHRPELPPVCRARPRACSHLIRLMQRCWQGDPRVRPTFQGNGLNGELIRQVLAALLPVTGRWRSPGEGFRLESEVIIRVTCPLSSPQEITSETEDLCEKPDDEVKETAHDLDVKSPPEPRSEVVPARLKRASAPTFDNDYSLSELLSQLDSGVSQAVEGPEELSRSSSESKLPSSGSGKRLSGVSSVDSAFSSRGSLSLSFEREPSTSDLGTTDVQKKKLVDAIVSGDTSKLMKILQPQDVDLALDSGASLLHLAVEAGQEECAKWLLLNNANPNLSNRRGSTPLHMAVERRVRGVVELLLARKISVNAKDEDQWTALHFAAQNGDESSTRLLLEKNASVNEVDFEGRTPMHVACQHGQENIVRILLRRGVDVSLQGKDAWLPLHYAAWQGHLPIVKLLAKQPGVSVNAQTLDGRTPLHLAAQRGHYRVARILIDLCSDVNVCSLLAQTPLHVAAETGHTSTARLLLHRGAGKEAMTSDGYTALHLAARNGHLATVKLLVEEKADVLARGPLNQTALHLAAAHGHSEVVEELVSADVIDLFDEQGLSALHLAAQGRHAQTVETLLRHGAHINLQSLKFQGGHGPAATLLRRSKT

COc1ccc2c(c1)O[C@H](c1ccc(OC)c(OC)c1)C[C@@H]2NC(=O)C1(c2ccc3c(c2)OC(F)(F)O3)CC1 [A-1596584]
-6.7%: % Inhibition of Control Values (Mean n=2) [17]
-2.1%: % Inhibition of Control Specific Binding (Mean n=2) [3]
-8.6%: % Inhibition of Control Specific Binding (Mean n=2) [8]
-2.5%: % Inhibition of Control Specific Binding (Mean n=2) [19]
active: residual activity [31] 39%
2.6%: inhibition at 90 min, 10 µM [28]
inactive: residual activity [1] 100% | residual activity [2] 100% | residual activity [4] 100% | residual activity [5] 100% | residual activity [6] 99% | residual activity [7] 75% | residual activity [9] 99% | residual activity [10] 87% | residual activity [11] 100% | residual activity [12] 73% | residual activity [14] 100% | residual activity [15] 100% | residual activity [16] 98% | residual activity [18] 100% | residual activity [20] 100% | residual activity [21] 89% | residual activity [22] 85% | residual activity [23] 84% | residual activity [24] 100% | residual activity [25] 91% | residual activity [26] 96% | inhibition [27] 0.16% | residual activity [29] 83% | residual activity [30] 100% | residual activity [32] 91% | residual activity [33] 93% | residual activity [34] 100% | residual activity [35] 100% | residual activity [36] 100% | residual activity [37] 100% | residual activity [38] 100% | residual activity [39] 100% | residual activity [40] 100% | residual activity [41] 100% | residual activity [42] 100% | residual activity [43] 100%
-4%: % Inhibition of Control Specific Binding (Mean n=2) [13]

COc1ccc2c(c1)O[C@@H](c1ccc(OC)c(OC)c1)C[C@H]2NC(=O)C1(c2ccc3c(c2)OC(F)(F)O3)CC1 [A-1596586]
-7.9%: % Inhibition of Control Values (Mean n=2) [17]
inactive: residual activity [1] 90% | residual activity [2] 99% | residual activity [4] 94% | residual activity [5] 93% | residual activity [6] 100% | residual activity [7] 67% | residual activity [9] 91% | residual activity [10] 80% | residual activity [11] 100% | residual activity [12] 97% | residual activity [14] 87% | residual activity [15] 77% | residual activity [16] 100% | residual activity [18] 87% | residual activity [20] 100% | residual activity [21] 95% | residual activity [22] 84% | residual activity [23] 72% | residual activity [24] 90% | residual activity [25] 77% | residual activity [26] 100% | inhibition [27] 2.75% | residual activity [29] 80% | residual activity [30] 100% | residual activity [31] 100% | residual activity [32] 91% | residual activity [33] 82% | residual activity [34] 92% | residual activity [35] 100% | residual activity [36] 91% | residual activity [37] 85% | residual activity [38] 91% | residual activity [39] 96% | residual activity [40] 87% | residual activity [41] 100% | residual activity [42] 97% | residual activity [43] 85%
2.8%: % Inhibition of Control Specific Binding (Mean n=2) [8]
3.1%: % Inhibition of Control Specific Binding (Mean n=2) [3]
-7%: % Inhibition of Control Specific Binding (Mean n=2) [19]
34.6%: inhibition at 90 min, 10 µM [28]
2.9%: % Inhibition of Control Specific Binding (Mean n=2) [13]
